Among the data in ChEMBL document CHEMBL2074369, “Interactions of HIV protease inhibitors with a human organic cation transporter in a mammalian expression system” (Drug Metab Dispos, 2000) are IC50 and Activity values, retold here.

The target of data set [1] is Solute carrier family 22 member 1, Homo sapiens (UniProt O15245). The data set is described as follows: TP_TRANSPORTER: inhibition of TEA uptake (TEA: 10 uM) in OCT1-expressing HeLa cells.
Data set [2] addresses T1, Solute carrier family 22 member 1 (Rattus norvegicus, UniProt Q63089).
T1 sequence (Q63089 whole entry): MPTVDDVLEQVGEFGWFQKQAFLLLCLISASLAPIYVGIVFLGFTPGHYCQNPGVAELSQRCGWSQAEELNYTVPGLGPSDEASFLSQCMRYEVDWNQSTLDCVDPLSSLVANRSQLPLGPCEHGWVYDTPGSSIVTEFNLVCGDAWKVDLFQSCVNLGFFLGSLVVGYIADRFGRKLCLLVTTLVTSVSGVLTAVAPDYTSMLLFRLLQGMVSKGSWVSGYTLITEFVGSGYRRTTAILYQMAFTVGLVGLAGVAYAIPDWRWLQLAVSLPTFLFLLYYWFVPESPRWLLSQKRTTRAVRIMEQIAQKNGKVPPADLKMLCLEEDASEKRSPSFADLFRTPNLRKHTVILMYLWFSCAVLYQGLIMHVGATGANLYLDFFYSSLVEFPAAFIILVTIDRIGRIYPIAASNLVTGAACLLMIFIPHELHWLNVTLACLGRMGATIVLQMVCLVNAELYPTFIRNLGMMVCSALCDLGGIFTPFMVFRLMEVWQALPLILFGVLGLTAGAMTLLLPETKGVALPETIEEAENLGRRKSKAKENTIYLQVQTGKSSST
The experiment in a line: TP_TRANSPORTER: uptake in OCT1-expressing HeLa cells. Format: functional, cell-based. The settings on record: human.

Structures are written as SMILES.

Chain of Solute carrier family 22 member 1, Homo sapiens (O15245 whole entry, looked up): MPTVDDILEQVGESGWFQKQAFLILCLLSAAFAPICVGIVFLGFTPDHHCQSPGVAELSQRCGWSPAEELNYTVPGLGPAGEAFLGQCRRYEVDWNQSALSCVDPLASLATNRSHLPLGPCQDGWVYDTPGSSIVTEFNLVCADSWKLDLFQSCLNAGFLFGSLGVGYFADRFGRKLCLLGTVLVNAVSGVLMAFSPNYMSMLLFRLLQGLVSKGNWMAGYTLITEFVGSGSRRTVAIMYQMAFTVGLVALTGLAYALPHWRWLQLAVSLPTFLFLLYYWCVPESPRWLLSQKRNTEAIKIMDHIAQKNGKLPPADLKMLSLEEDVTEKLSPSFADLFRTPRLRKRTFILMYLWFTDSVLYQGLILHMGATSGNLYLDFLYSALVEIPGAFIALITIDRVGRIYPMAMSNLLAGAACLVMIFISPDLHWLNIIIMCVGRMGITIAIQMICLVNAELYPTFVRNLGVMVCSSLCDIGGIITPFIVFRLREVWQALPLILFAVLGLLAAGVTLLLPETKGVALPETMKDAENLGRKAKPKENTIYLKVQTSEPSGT

Regarding `CC(C)(C)NC(=O)[C@@H]1CN(Cc2cccnc2)CCN1C[C@@H](O)C[C@@H](Cc1ccccc1)C(=O)N[C@H]1c2ccccc2C[C@H]1O` [INDINAVIR], 61.7 µM corresponded to half-maximal inhibition in data set [1] (IC50).
Consider `Cc1c(O)cccc1C(=O)N[C@@H](CSc1ccccc1)[C@H](O)CN1C[C@H]2CCCC[C@H]2C[C@H]1C(=O)NC(C)(C)C` [NELFINAVIR], for which the IC50 – broadly, the concentration at which inhibition is half-maximal – in data set [1] was 21.8 µM.
On to `CC(C)(C)NC(=O)[C@@H]1C[C@@H]2CCCC[C@@H]2CN1C[C@@H](O)[C@H](Cc1ccccc1)NC(=O)[C@H](CC(N)=O)NC(=O)c1ccc2ccccc2n1` [SAQUINAVIR], for which the Activity result in data set [2] was “is not a substrate [-]”. In data set [1], this compound gave an IC50 of 8.26 µM.
